Experiments:
Assay type in all cases: in vivo
[1] = system: Abutilon theophrasti; assay: Herbicidal action post-emergence (greenhouse pot trial); settings: application rate 20 g/ha, scored visually after about 3 weeks vs untreated controls
Outline: (§1)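 Visual efficacy score after ~3 wk in greenhouse vs untreated control; 100% = plants dead, 0% = like control. Spray: aqueous suspension/emulsion of WP or EC, 0.5% additive, 600 L/ha water, ≤80 g/ha. Plants in sandy loam pots, treated at one-leaf stage, 2–3 wk post-sowing.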

[2] = system: Amaranthus retroflexus; assay: as above; settings: application rate 20 g/ha, scored visually after about 3 weeks vs untreated controls
Outline: as §1

[3] = system: Digitaria sanguinalis; assay: as above; settings: application rate 20 g/ha
Outline: as §1

[4] = system: Echinochloa crus-galli; assay: as above; settings: application rate 20 g/ha, scored visually after about 3 weeks vs untreated controls
Outline: as §1

[5] = system: Matricaria inodora; assay: as above; settings: application rate 20 g/ha, scored visually after about 3 weeks vs untreated controls
Outline: as §1

[6] = system: Pharbitis purpurea; assay: as above; settings: application rate 20 g/ha
Outline: as §1

[7] = system: Polygonum convolvulus; assay: as above; settings: application rate 20 g/ha, scored visually after about 3 weeks vs untreated controls
Outline: as §1

[8] = system: Setaria viridis; assay: as above; settings: application rate 20 g/ha, scored visually after about 3 weeks vs untreated controls
Outline: as §1

[9] = system: Stellaria media; assay: as above; settings: application rate 20 g/ha, scored visually after about 3 weeks vs untreated controls
Outline: as §1

[10] = system: Veronica persica; assay: as above; settings: application rate 20 g/ha
Outline: as §1

[11] = system: Viola tricolor; assay: as above; settings: application rate 20 g/ha
Outline: as §1

[12] = system: Oryza sativa; assay: Crop compatibility post-emergence (greenhouse pot trial); settings: application rate 20 g/ha
Outline: (§2)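 Visual % damage vs untreated controls, ~3 wk post-spray (100% = plants died, 0% = as control). Plants in sandy loam, greenhouse, sprayed at one-leaf stage (2–3 wk after sowing); WP/EC in water + 0.5% additive, 600 L/ha.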

[13] = system: Triticum aestivum; assay: as above; settings: application rate 20 g/ha
Outline: as §2

[14] = system: Zea mays; assay: as above; settings: application rate 5 g/ha
Outline: as §2

[15] = system: Abutilon theophrasti; assay: Herbicidal action pre-emergence (greenhouse pot trial); settings: application rate 80 g/ha, scored after about 3 weeks
Outline: (§3)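 Efficacy scored visually as percent of untreated control (0% = like control, 100% = dead) roughly 3 weeks after treatment. Compounds, as WP or EC plus 0.5% additive in 600 L/ha water, were applied at up to 320 g/ha to soil surface covering freshly sown seeds.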

[16] = system: Amaranthus retroflexus; assay: as above; settings: application rate 80 g/ha, scored after about 3 weeks
Outline: as §3

[17] = system: Digitaria sanguinalis; assay: as above; settings: application rate 80 g/ha
Outline: as §3

[18] = system: Echinochloa crus-galli; assay: as above; settings: application rate 80 g/ha, scored after about 3 weeks
Outline: as §3

[19] = system: Matricaria inodora; assay: as above; settings: application rate 80 g/ha, scored after about 3 weeks
Outline: as §3

[20] = system: Pharbitis purpurea; assay: as above; settings: application rate 80 g/ha
Outline: as §3

[21] = system: Polygonum convolvulus; assay: as above; settings: application rate 80 g/ha, scored after about 3 weeks
Outline: as §3

[22] = system: Setaria viridis; assay: as above; settings: application rate 80 g/ha, scored after about 3 weeks
Outline: as §3

[23] = system: Stellaria media; assay: as above; settings: application rate 80 g/ha, scored after about 3 weeks
Outline: as §3

[24] = system: Veronica persica; assay: as above; settings: application rate 80 g/ha
Outline: as §3

[25] = system: Viola tricolor; assay: as above; settings: application rate 80 g/ha, scored after about 3 weeks
Outline: as §3

[26] = system: Glycine max; assay: Crop compatibility pre-emergence (greenhouse pot trial); settings: application rate 80 g/ha, effect vs untreated controls
Outline: (§4)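 Compounds, formulated as WP or EC plus 0.5% additive, applied to covering soil after sowing at a water rate of 600 L/ha. After roughly 3 weeks under greenhouse conditions, visual % injury to crops rated against untreated plants, 0% meaning like control.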

[27] = system: Oryza sativa; assay: as above; settings: application rate 20 g/ha, effect vs untreated controls
Outline: as §4

[28] = system: Zea mays; assay: as above; settings: application rate 80 g/ha, effect vs untreated controls
Outline: as §4

CCC(Sc1cc(-n2c(=O)cc(C(F)(F)F)n(C)c2=O)c(F)cc1Cl)C(=O)OCC1CCCO1 (stereo not shown) [I.2-71]
Abutilon theophrasti (Efficacy in %) [1]: 100%
Amaranthus retroflexus (Efficacy in %) [2]: 100%
Digitaria sanguinalis (Efficacy in %) [3]: 100%
Echinochloa crus-galli (Efficacy in %) [4]: 80%
Matricaria inodora (Efficacy in %) [5]: 100%
Pharbitis purpurea (Efficacy in %) [6]: 100%
Polygonum convolvulus (Efficacy in %) [7]: 100%
Setaria viridis (Efficacy in %) [8]: 90%
Stellaria media (Efficacy in %) [9]: 100%
Veronica persica (Efficacy in %) [10]: 100%
Viola tricolor (Efficacy in %) [11]: 100%
Oryza sativa (Efficacy in %) [12]: 20%
Triticum aestivum (Efficacy in %) [13]: 20%
Zea mays (Efficacy in %) [14]: 0%
Abutilon theophrasti (Efficacy in %) [15]: 100%
Amaranthus retroflexus (Efficacy in %) [16]: 100%
Digitaria sanguinalis (Efficacy in %) [17]: 100%
Echinochloa crus-galli (Efficacy in %) [18]: 100%
Matricaria inodora (Efficacy in %) [19]: 100%
Pharbitis purpurea (Efficacy in %) [20]: 100%
Polygonum convolvulus (Efficacy in %) [21]: 100%
Setaria viridis (Efficacy in %) [22]: 100%
Stellaria media (Efficacy in %) [23]: 100%
Veronica persica (Efficacy in %) [24]: 100%
Viola tricolor (Efficacy in %) [25]: 100%
Glycine max (Efficacy in %) [26]: 0%
Oryza sativa (Efficacy in %) [27]: 0%
Zea mays (Efficacy in %) [28]: 10%

— US11497212B2, “Substituted thiophenyl uracils, salts thereof and the use thereof as herbicidal agents” (Syngenta Crop Protection AG, priority 2017, dated 2022)
